According to PMC10094921, “A Lipidated Single-B-Chain Derivative of Relaxin Exhibits Improved In Vitro Serum Stability without Altering Activity” (International Journal of Molecular Sciences, 2023):
Residues, ends and D or L forms follow the SMILES beside them. No end group written: not given here. *: point of attachment. Palmitoyl = CCCCCCCCCCCCCCCC(=O)*

How the values were obtained:
[1] = In vitro serum stability assay; format: in vitro ADME, human; details: 37 °C
Procedure: 3.7. In Vitro Serum Stability Assay
A total of 400 µL of human serum was taken, and 200 µg peptide dissolved in 100 µL of water was added to human serum at 37 °C. A total of 80 µL of samples was removed at various time points (0 min, 30 min, 60 min, 120 min, 240 min, and 480 min), and 160 µL of acetonitrile was added to precipitate plasma proteins. The solution was then centrifuged at 12,000 rpm for 15 min at 4 °C. A total of 200 µL of supernatant was taken out and mixed with 240 µL of milli-Q water, and each sample was analyzed by RP-HPLC (2 × 80 μL injection), by measuring the area under the peak at the appropriate retention time compared to the peak area of the peptide at time zero minute (100%). Data analysis (n = 3, duplicate) was performed using Prism Version 8.0.2, a non-linear-fit one-phase decay model.

[2] = tested on: BJ3 human dermal myofibroblasts; experiment: Myofibroblast differentiation in vitro (α-SMA expression, Western blot); format: cell-based
Procedure: 3.8. Determination of the Effects of Lipidated (L)-B7-33 on Myofibroblast Differentiation In Vitro
To determine if the lipidation of B7-33 prolonged its ability to suppress myofibroblast differentiation in vitro, the effects of the native B7-33 peptide vs. lipidated (L)-B7-33 were compared in BJ3 cells, a human dermal fibroblast cell line. BJ3 fibroblasts were used between passages 15–18 and cultured as described before. […] BJ3 cells were plated in 12-well plates at a density of 1–1.25 × 10^5 cells per well and were then either left untreated or stimulated with transforming growth factor (TGF)-β1 (T; 2 ng/mL) alone (to promote myofibroblast differentiation) or with T + B7-33 (100 ng/mL) or T + L-B7-33 (100 ng/mL) for a 14-day period, in media that was left unchanged over this time period. The cells from duplicate wells per treatment group were isolated from plates at 3-, 5-, 7-, 10- and 14-days post-T ± peptide treatment and extracted for protein using the RIPA lysis buffer (ThermoFisher Scientific; Scoresby, Victoria, Australia). These experiments were performed six independent times.
Half the cell protein (in 10 μL of RIPA buffer) from each sample (that was fully reconstituted in 20 μL of RIPA buffer) was loaded and electrophoresed in separate mini-protean 4–15% precast gels, and analyzed by Western blotting using a primary monoclonal antibody to α-SMA (42 kDa; M0851; […]; Agilent Technologies, Santa Clara, CA, USA). The equivalent loading of protein between samples was confirmed using a rabbit monoclonal glyceraldehyde 3-phosphate dehydrogenase (GAPDH) housekeeping antibody (37 kDa; 2118; 1:1000 dilution; Cell Signaling Technology; Danvers, MA, USA). Each membrane was then subjected to appropriate anti-mouse (7076) or anti-rabbit (7074) horseradish peroxidase-conjugated secondary antibodies (both at a 1:2000 dilution; Cell Signaling Technologies), before proteins were detected using the Clarity Western ECL substrate detection kit and quantified by densitometry with a ChemiDoc MP Imaging System and Image Lab v.6.0 software (both from Bio-Rad Laboratories, Hercules, CA, USA).The density of α-SMA from each sample was corrected for GAPDH protein levels and then expressed relative to the ratio that was measured from the unstimulated control group, which was expressed as 1 in each case. Representative blots of α-SMA and GAPDH were also chosen for presentation in each case.

[3] = tested on: cyclic adenosine monophosphate (cAMP); details: in fibroblasts; cited from earlier work
Source text: (§1) The human gene-2 relaxin peptide (H2 relaxin) was discovered as a hormone of reproduction. The actions of H2 relaxin during pregnancy are pleiotropic, including strong antifibrotic, angiogenic, vasodilatory, antiapoptotic, and anti-inflammatory effects. These effects are mediated through the activation of the G protein-coupled receptor, Relaxin Family Peptide Receptor 1 (RXFP1), the native receptor for H2 relaxin [5]. However, H2 relaxin also has a high affinity for, and potency on, the related Relaxin Family Peptide Receptor 2 (RXFP2, a cognate receptor for INSL3 [6]) ...

[4] = tested on: heart fibrosis, lung fibrosis; details: rat vs. mouse; cited from earlier work
Source text: as §1

pERK pathway = details: in fibroblasts; cited from earlier work
Source text: as §1

[5] = target: T1, 7BP protein (RXFP1 extracellular domain attached with a single TM domain) (Homo sapiens, UniProt Q9HBX9); experiment: Eu-H2 relaxin competition binding in HEK-7BP cells, BSA free; details: HEK-293T cells stably expressing 7BP, BSA excluded from buffer, mean ± SEM, n in brackets, one-site fit, read-out: HEK-7BP Binding B.S.A. Free Eu-H2 pKi (n) (converted)
T1 construct: RXFP1 extracellular domain attached with a single TM domain instead of the native 7 TM domain; single transmembrane domain replacing the native 7 TM domain (heterologous); expressed in transfected cells; host or cells: HEK-293T cells stably expressing 7BP (HEK-7BP)
T1 sequence (Q9HBX9 1-409 limits assumed): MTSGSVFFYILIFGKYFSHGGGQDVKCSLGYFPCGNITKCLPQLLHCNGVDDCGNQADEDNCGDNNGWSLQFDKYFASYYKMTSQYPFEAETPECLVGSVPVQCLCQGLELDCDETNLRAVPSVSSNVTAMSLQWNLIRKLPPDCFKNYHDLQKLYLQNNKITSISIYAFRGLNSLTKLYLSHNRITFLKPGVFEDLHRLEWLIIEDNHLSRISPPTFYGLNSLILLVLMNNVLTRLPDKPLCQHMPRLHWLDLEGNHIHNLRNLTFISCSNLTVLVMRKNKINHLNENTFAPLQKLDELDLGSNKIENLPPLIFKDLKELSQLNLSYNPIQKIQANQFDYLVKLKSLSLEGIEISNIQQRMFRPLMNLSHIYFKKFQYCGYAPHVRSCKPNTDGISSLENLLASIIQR
Procedure: 3.6. HEK-7BP Binding Assays
HEK-293T cells stably expressing the 7BP protein (HEK-7BP; RXFP1 extracellular domain attached with a single TM domain instead of the native 7 TM domain [30]) were plated in 96-well plates. The medium was aspirated off, and the cells were washed with phosphate-buffered saline (PBS) before competition binding assays were performed with Eu-H2 Relaxin (RXFP1 ligand), as previously described, with the only difference being that BSA was excluded from the binding assay buffer. Competition binding curves for each peptide were performed in triplicate, and each experiment was performed independently at least three times. Fluorescent measurements were carried out on a BMG POLARstar plate reader (BMG Labtech, Melbourne, Australia). Pooled data are presented as mean ± SE of specific binding and are fitted using a one-site binding curve in GraphPad Prism version 8 (GraphPad Inc., San Diego, CA, USA). Statistical analyses were conducted using a one-way analysis of variance with uncorrected Fisher’s least significant difference (LSD) post-hoc analysis in GraphPad Prism version 8.

[6] = human serum 400 µL + 200 µg peptide in 100 µL water, samples 0-480 min, acetonitrile precipitation, RP-HPLC peak area vs time zero, one-phase decay fit, n = 3, duplicate

half-life at 400 µg/mL [1, 6] [min]	in vitro half-life in serum [1, 6] [min]	in vitro serum stability, in words ([1]; human serum, RP-HPLC, n = 3 independent experiments)	Ki [5] [µM]	Compound	α-SMA expression levels versus T-alone-stimulated cells, in words ([2]; peptide 100 ng/mL + T 2 ng/mL, after 5–14 days of culture)	suppression of TGF-α-induced increase in α-SMA expression ([2]; peptide 100 ng/mL co-administered with T (2 ng/mL), after 72 h of culture, 0.5% FCS, n = 6 in duplicate)	cAMP activation [3]	effect on fibrosis in animal models [4]	pERK pathway activation potency (pERK pathway)
~6	6	degrades within minutes		VIKLSGRELVRAQIAISGMSTWSKRSL-NH2 [Analogue B7-33]	fully returned to those measured for T-alone-stimulated cells	almost fully suppressed	barely activate	reversed or resolved fibrosis	potency similar to H2 relaxin
			> 10	CCCCCCCCCCCCCCCC(=O)NCCCC[C@H](NC(=O)[C@H](CCC(=O)O)NC(=O)[C@H](Cc1ccc(O)cc1)NC(=O)[C@@H](N)CCC(=O)O)C(=O)N[C@@H](CCC(=O)O)C(=O)N[C@@H](Cc1ccc(O)cc1)C(=O)N[C@@H](CCC(=O)O)C(=O)N[C@H](C(=O)N[C@H](C(=O)N[C@@H](CCCCN)C(=O)N[C@@H](CC(C)C)C(=O)N[C@@H](CO)C(=O)NCC(=O)N[C@@H](CCCNC(=N)N)C(=O)N[C@@H](CCC(=O)O)C(=O)N[C@@H](CC(C)C)C(=O)N[C@H](C(=O)N[C@@H](CCCNC(=N)N)C(=O)N[C@@H](C)C(=O)N[C@@H](CCC(N)=O)C(=O)N[C@H](C(=O)N[C@@H](C)C(=O)N[C@H](C(=O)N[C@@H](CO)C(=O)NCC(=O)N[C@@H](CCSC)C(=O)N[C@@H](CO)C(=O)N[C@H](C(=O)N[C@@H](Cc1c[nH]c2ccccc12)C(=O)N[C@@H](CO)C(=O)N[C@@H](CCCCN)C(=O)N[C@@H](CCCNC(=N)N)C(=O)N[C@@H](CO)C(=O)N[C@@H](CC(C)C)C(N)=O)[C@@H](C)O)[C@@H](C)CC)[C@@H](C)CC)C(C)C)[C@@H](C)CC)C(C)C [Tag-B7-33] (H-EYEK(Palmitoyl)EYEVIKLSGRELVRAQIAISGMSTWSKRSL-NH2)					
